Assay results as given in ChEMBL document CHEMBL1123021, “3-Amino-beta-carboline derivatives and the benzodiazepine receptor. Synthesis of a selective antagonist of the sedative action of diazepam” (J Med Chem, 1985).

Biological target: GABA-A receptor; anion channel
Assay: Inhibition of [3H]- flunitrazepam binding to GABA-A Benzodiazepine receptor of rat cerebral cortex membranes
Format: cell membranes, Membrane

Row | SMILES | IC50
1 | O=C(Nc1cc2c3ccccc3nc-2c[nH]1)C(F)(F)F | 6.3 µM
2 | Nc1cc2c(cn1)[nH]c1ccccc12 | 25 µM
3 | COC(=O)Nc1cc2c3ccccc3nc-2c[nH]1 | 0.071 µM
4 | CCOC(=O)c1cc2c(cn1)[nH]c1ccccc12 | 0.002 µM
5 | CS(=O)(=O)Nc1cc2c3ccccc3nc-2c[nH]1 | 62 µM
6 | CCOC(=O)Nc1cc2c3ccccc3nc-2c[nH]1 | 0.08 µM
7 | CCNc1cc2c3ccccc3nc-2c[nH]1 | 0.46 µM
8 | O=CNc1cc2c3ccccc3nc-2c[nH]1 | 4.7 µM
9 | CC(=O)Nc1cc2c3ccccc3nc-2c[nH]1 | 4 µM
